Measured values from publication PMC7949139, “The molecular basis of OH-PCB estrogen receptor activation” (The Journal of Biological Chemistry, 2021).
Substitutions are numbered along the chain they refer to.

Experiments:
[1] = target: T1, WT SULT1E1 (Homo sapiens, UniProt P49888); test: Initial-rate studies (1-HP sulfonation; OH-PCB inhibition), WT enzyme; assay type: biochemical
T1 construct: E. coli codon-optimized SULT1E1 coding region inserted into the PreScission Protease cleavage site; His/GST/MBP triple tag (N, cleaved yes); made in house; host or cells: E. coli BL21(DE3)
T1 sequence (P49888 1-294): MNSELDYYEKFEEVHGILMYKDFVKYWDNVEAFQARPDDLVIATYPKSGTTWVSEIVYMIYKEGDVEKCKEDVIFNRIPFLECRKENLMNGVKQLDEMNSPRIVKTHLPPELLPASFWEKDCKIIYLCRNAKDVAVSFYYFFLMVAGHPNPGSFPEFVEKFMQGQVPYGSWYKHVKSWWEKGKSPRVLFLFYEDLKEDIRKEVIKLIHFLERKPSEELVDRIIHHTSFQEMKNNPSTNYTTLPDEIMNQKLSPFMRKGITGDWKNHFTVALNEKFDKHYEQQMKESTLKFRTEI
Procedure: (§1) C. Reaction progress was monitored via the fluorescence change associated with 1-HP sulfonation (λex = 325 nm, λem = 370 nm ([51], [52])). Initial rates were measured during conversion to product of ≤5% of the concentration-limiting substrate consumed at the reaction endpoint. Velocities were determined in triplicate. Km and kcat were obtained by (1/v^4)-weighted least-squares fitting of the averaged data in double-reciprocal space (i.e., 1/v versus 1/[S]) ([66], [67]).
(§2) Inhibition studies were performed as described above except: 1-HP was fixed (2.0 μM, 100 × Km), OH-PCBs were added (0.20–20 × Ki), and SULT1E1 was 0.20 nM (active sites). Ki was determined by least-squares fitting to a noncompetitive inhibition model ([66], [67]).

[2] = target: T2, SULT1E1 F80A (Homo sapiens, UniProt P49888, F80A); test: Initial-rate studies (1-HP sulfonation; OH-PCB1 inhibition), F80A mutant; assay type: biochemical
T2 construct: E. coli codon-optimized SULT1E1 coding region inserted into the PreScission Protease cleavage site; His/GST/MBP triple tag (N, cleaved yes); made in house; host or cells: E. coli BL21(DE3)
T2 sequence (P49888 1-294 F80A): T1 sequence (P49888 1-294) with F80A
Procedure: as §1, §2

[3] = test system: estrogen receptor (ER) activation in (-) SULT1E1 control Ishikawa cells; test: Estrogen receptor activation (alkaline phosphatase activity), control strain; assay type: cell-based; settings: Homo sapiens, Control cell line, OH-PCB titration at 10 nM E2 (footnote a), NE = No Effect, read-out: Ligand EC50, ER activation
Procedure: pcDNA 3.1 constructs harboring either the SULT1E1 WT or double mutant (F75A/F80A) coding regions were generated using Gibson Assembly ([74]). The vectors were linearized using BGIII. Ishikawa cells were grown at 37 °C ± 2 deg. C in growth medium (MEM media containing 10% v/v FBS). At confluence, the cells were washed (3×) with PBS media before coating with an Opti-MEM solution containing a linearized construct (50 ng μg^−1) and lipofectamine (2.5 units ml^−1). After 24 h at 37 °C ± 2 deg. C, cells were washed (3×) with PBS before adding growth medium containing neomycin (400 μg ml^−1) to select transfectants. Selective growth medium was replenished every 48 h until single colonies could be isolated (∼3–6 weeks). Single colonies were transferred using trypsin digest (0.05%) to 12-well plates and grown at 37 °C ± 2 deg. C to confluence for further experimentation and storage.
Transfected Ishikawa cells were grown at 37 °C ± 2 deg. C to 60 to 70% confluency in MEM containing 10% v/v FBS. Cells were then transferred to 96-well tissue culture plates and grown at 37 °C ± 2 deg. C to 80% confluency in MEM containing 10% v/v charcoal filtered FBS. The plate was then washed with PBS and grown at 37 °C ± 2 deg. C for 24 h in MEM without FBS. Estradiol (0–3.0 μM) and OH-PCB (0–1.0 μM) solubilized in neat DMSO were added and cells were incubated at 37 °C ± 2 deg. C for 5 days. The final concentrations of DMSO were ≤0.10%. Cells were then washed twice with PBS before adding pNpp (5.0 mM) in PBS ([75]). Following incubation with pNpp for 3 h at 25 °C ± 2 deg. C, wells were read at 405 nm using a Synergy HT BioTek Plate Reader.

[4] = target: T3, SULT1E1 Y239A (Homo sapiens, UniProt P49888, Y239A); test: Initial-rate studies (1-HP sulfonation; OH-PCB1 inhibition), Y239A mutant; assay type: biochemical
T3 construct: E. coli codon-optimized SULT1E1 coding region inserted into the PreScission Protease cleavage site; His/GST/MBP triple tag (N, cleaved yes); made in house; host or cells: E. coli BL21(DE3)
T3 sequence (P49888 1-294 Y239A): T1 sequence (P49888 1-294) with Y239A
Procedure: as §1, §2

[5] = noncompetitive inhibition model, parentheses = one SD

Compound: Oc1ccc(-c2c(Cl)cccc2Cl)cc1 [OH-PCB1, 4ʹ-OH-2,6-dichlorobiphenol]
- Fold Effect = Ki OH-PCB1/Ki OH-PCB1 WT ([1]; WT): 1.0
- Ki ([1]; WT SULT1E1, Table 1, parentheses = one SD, read-out: Ki OH-PCB1): 60 nM
- Fold Effect = Ki OH-PCB1/Ki OH-PCB1 WT [2]: 12
- Ki [2, 5]: 730 nM
- EC50 [3]: > 1000 nM
- Fold Effect = Ki OH-PCB1/Ki OH-PCB1 WT [4]: 5.7
- Ki [4, 5]: 340 nM
